Ki data for three compounds are collected here from ChEMBL document CHEMBL1128169, “Thiourea analogues of resiniferatoxin as ligands for the vanilloid receptor” (Bioorg Med Chem Lett, 1995).

The experiment deals with Transient receptor potential cation channel subfamily V member 1 (Homo sapiens, UniProt Q8NER1). In words: Displacement of [3H]RTX binding from vanilloid receptor.
Transient receptor potential cation channel subfamily V member 1, sequence (Q8NER1 whole entry): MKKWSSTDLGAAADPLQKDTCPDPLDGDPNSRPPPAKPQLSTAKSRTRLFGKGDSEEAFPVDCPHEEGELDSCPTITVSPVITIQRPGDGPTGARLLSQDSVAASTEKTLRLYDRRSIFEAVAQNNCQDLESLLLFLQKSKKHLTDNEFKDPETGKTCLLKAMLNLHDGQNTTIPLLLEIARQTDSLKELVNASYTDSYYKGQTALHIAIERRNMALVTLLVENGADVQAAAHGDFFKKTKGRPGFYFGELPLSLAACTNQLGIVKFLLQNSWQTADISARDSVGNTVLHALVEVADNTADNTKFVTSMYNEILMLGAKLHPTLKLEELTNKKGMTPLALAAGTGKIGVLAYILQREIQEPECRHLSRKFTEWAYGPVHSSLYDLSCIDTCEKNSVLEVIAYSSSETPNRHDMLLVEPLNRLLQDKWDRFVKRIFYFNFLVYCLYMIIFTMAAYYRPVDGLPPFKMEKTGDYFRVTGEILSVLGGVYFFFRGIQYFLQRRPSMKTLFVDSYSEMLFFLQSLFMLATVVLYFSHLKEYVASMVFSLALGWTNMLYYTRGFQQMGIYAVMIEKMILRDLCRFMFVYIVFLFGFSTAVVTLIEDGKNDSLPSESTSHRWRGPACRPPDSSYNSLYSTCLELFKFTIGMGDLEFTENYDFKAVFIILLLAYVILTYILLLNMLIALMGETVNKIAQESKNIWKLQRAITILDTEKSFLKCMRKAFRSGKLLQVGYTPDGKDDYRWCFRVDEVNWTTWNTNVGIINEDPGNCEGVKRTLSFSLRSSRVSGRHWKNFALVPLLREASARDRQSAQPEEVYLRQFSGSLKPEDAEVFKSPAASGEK
Regarding `C=C(C)[C@]12C[C@@H](C)[C@@]34OC(Cc5ccccc5)(O[C@@H]1[C@@H]3C=C(CNC(=S)NCc1ccc(O)c(OC)c1)C[C@]1(O)C(=O)C(C)=C[C@@H]41)O2`, the Ki was 149 nM.

`C=C(C)[C@]12C[C@@H](C)[C@@]34O[C@](Cc5ccccc5)(O[C@@H]1[C@@H]3C=C(COC(=O)Cc1ccc(O)c(OC)c1)C[C@]1(O)C(=O)C(C)=CC41)O2` (single isomer, unassigned) [RESINIFERATOXIN] had a Ki of 23.1 nM.

In turn, `C=C(C)[C@]12C[C@@H](C)[C@@]34OC(Cc5ccccc5)(O[C@@H]1[C@@H]3C=C(C/N=C(\S)Nc1ccc(O)c(OC)c1)C[C@]1(O)C(=O)C(C)=C[C@@H]41)O2` returned a Ki of 66.1 nM.

As usually defined, the Ki is a measure of affinity in units of concentration, obtained from inhibition or displacement.
